# Entries after “also recorded” stand apart in the source; their conditions may differ.
# Columns and labels:
# [1] = Metabolic stability, rat liver microsome; type: in vitro ADME; details: for half-life: liver microsomes, read-out: metabolic stability (liver microsome, T1/2) rat
# DSS-induced colitis [2] = assay: DSS-induced colitis model of ulcerative colitis; type: in vivo; details: for DAI scores (disease activity index) versus PBS control / colon length (colon shortening) versus PBS control: 100 μg/kg ip on day 4, 2.0% DSS day 1-7, read on day 8
# Procedure: DSS treatment causes progressive weight loss, diarrhea and colon inflammation with a significant reduction in colon length, which leads to increases in the clinical scores of disease symptoms (DAI: disease activity index). C57BL/6 mice (n = 12 per group) were continuously treated with 2.0% DSS in their drinking water from day 1 to day 7. The mice were injected intraperitoneally with 100 μg/kg of the derivatives or PBS (control) on day 4. On day 8, the DAI scores and colon lengths of the mice administered the derivatives were compared with those of the mice administered PBS (control). […] Colon shortening is a feature of colon inflammation in the DSS-induced model. In the model, the colon length of healthy mice is about 8 cm (DSS (−)), whereas that of mice upon DSS treatment is about 4 cm (DSS + PBS) as shown in Fig. 7b. […] In this study, we selected the intraperitoneal injection as the administration method of lipid ligands, and used DAI scores and colon length to investigate the protective effects of derivatives against colitis. On the other hand, the difference in the administration method of immunomodulators, such as lipid ligands, might have a significant impact on their efficacy[46],[47]. In addition, the cytokine profiles in the colon upon ligand treatment could also provide useful information regarding their efficacy. Further research is currently being conducted into the effects of administration methods on efficacy and the examination of colon cytokine profiles.
# The animal experiments using murine DSS model were conducted in accordance with the guidelines of Keio university institutional animal care and use committee. Specific pathogen-free C57BL/6 mice were purchased from Japan Clea (Tokyo, Japan). All mice were housed under specific pathogen-free conditions in microisolator cages in an animal facility, and male mice (7 weeks of age) were used. DSS (dextran sulfate sodium) was added to the water supply provided to the animals at a concentration of 2.0% (wt/vol) for days 1–7. Derivatives 2 and 3 were first dissolved in DMSO at 100 μg/mL and then diluted in PBS solution. The derivatives (100 μg/kg in 200 μL of solution) were injected intraperitoneally on day 4 after the induction of colitis. Control animals received 200 μL of PBS solution containing the same concentration of DMSO. Mice were sacrificed on day 8 after DSS administration. Intestinal tissues were removed and opened longitudinally. The length of the colon was measured after exclusion of cecum. The disease activity index (DAI), defined as stool blood, stool form and weight loss, and the length of the colon were used to analyze the therapeutic benefits of derivatives 2 and 3.
# [3] = Metabolic stability, human liver microsome; type: in vitro ADME; details: for half-life: liver microsomes, read-out: metabolic stability (liver microsome, T1/2) human
# Water solubility = type: physicochemical
# mCD1d-Fc fusion protein [4] = molecular target: T1, mCD1d-Fc fusion protein (Mus musculus, UniProt P11609); parameters: method as in PMID 27648599; details: previously reported; cited from earlier work
# T1 construct: Ig (mouse immunoglobulin fusion partner); purchased BD Biosciences
# T1 sequence (P11609 22-305 limits assumed): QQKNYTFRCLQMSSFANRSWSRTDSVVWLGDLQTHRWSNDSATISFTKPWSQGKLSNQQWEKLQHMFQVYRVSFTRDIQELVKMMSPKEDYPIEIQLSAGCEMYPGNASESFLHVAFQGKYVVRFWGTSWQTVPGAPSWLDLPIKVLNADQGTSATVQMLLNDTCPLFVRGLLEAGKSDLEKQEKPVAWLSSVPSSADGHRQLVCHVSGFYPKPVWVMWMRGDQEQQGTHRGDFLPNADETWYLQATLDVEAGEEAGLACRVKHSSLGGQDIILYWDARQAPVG
# T1 sequence (P01887 21-119 partner): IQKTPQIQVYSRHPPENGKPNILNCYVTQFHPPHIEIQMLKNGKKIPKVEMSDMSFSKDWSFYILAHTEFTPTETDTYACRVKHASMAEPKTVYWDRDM
# mouse splenocytes = assay: Cytokine secretion assay using mouse splenocyte; type: cell-based, C57BL/6 mice; parameters: IFN-γ production / IL-4 production / IL-17A production: unit not given here; details: for IFN-γ production / IL-4 production / IL-17A production: 1 nM ligand, 48 h; for IL-17A production: Fig. S2c; for Relative ratio IL-4/IFN-γ of cytokine production compared to α-GalCer / Relative ratio IL-17A/IFN-γ of cytokine production compared to α-GalCer: 1 nM; for Relative ratio IL-4/IFN-γ of cytokine production compared to α-GalCer: Fig. 5a; for Relative ratio IL-17A/IFN-γ of cytokine production compared to α-GalCer: Fig. 5b; for cytokine polarization in words: from relative ratios, Fig. 5
# Procedure: Spleen cell suspensions (from C57BL/6 mice) were prepared in complete medium (RPMI 1,640 media supplemented with 10% FBS and 1% penicillin–streptomycin) and seeded into 96-well plates (6.0 × 10^5 cells/well). Lipid ligands were added, and the mixture were incubated at 37 °C for 48 h. IFN-γ, IL-4 and IL-17A release were measured with an ELISA kit (Affymetrix).
# mCD1d-Fc fusion protein [5] = molecular target: T1, mCD1d-Fc fusion protein; assay: Antigen presenting cell (APC)-free assay for lipid binding to mCD1d-Fc; IL-2 release by 2E10 NKT hybridoma cells; type: cell-based; parameters: unit not given here; details: mean ± SEM; for IL-2 production (exact values of IL-2): ligand 10 nM, Fig. 3a, b; for IL-2 production: ligand 100 nM, Fig. 3c, d
# Procedure: NKT hybridoma 2E10 cells were cultured in RPMI-1640 (NACALAI TESQUE, INC) supplemented with 10% fetal bovine serum (FBS; Biowest), and 1% penicillin–streptomycin (Gibco).
# For this assay, 96-well microplates (Bio-one 96-well cell culture plate, Greiner) were coated with mouse CD1d:Ig Fusion protein (BD Biosciences) (0.25 μg/well) in PBS at 37 °C for 24 h. […] After washing, 2E10 NKT hybridoma cells (2.5 × 10^5 cells/well) were added and cultured at 37 °C for 48 h. IL-2 release was measured with an ELISA kit (Affymetrix).
# DSS-induced colitis [6] = test system: DSS-induced colitis; parameters: method as in PMID 15674111; details: cited from earlier work
# [7] = Plasma pharmacokinetic profile in mice after ip dosing; type: in vivo, C57BL/6J mice; details: male, C57BL/6, mouse, 100 ug/kg, 100 μg/kg ip, mice n = 6
# Procedure: The pharmacokinetic study was approved by The Institutional Animal Care and Use Committee of Ono Pharmaceutical Co., Ltd. and was performed in accordance with the ethics criteria contained in the animal welfare bylaws of the Committee. The pharmacokinetics of 3 were studied following intraperitoneal administration. The 10 μg/mL dosing solution, which contained DMSO/Phosphate buffered saline = 1/9, was administered intraperitoneally to six male C57BL/6 mice (Charles River Laboratories, Japan, Inc.). Blood samples were collected into heparinized syringes at designated times and centrifuged to obtain the plasma samples. The plasma samples were assayed after protein precipitation by acetonitrile/ethanol (70/30, v/v), followed by HPLC/MS/MS analysis. Plasma concentration–time data were analyzed by noncompartmental methods.
# [8] = Table S1, dash = below the detection limit (< 5 μM) according to b25
metabolic stability in words [1],half-life [1] [h],half-life [3] [h],solubility (Water solubility; [8]) [µM],IL-2 production (exact values of IL-2) (mCD1d-Fc fusion protein [5]),metabolic stability in words [3],solubility (Water solubility; detection limit 5 μM) [µM],Structure (SMILES),"cytokine production / agonistic activity relative to α-GalCer, in words (mCD1d-Fc fusion protein [4])",IFN-γ production (mouse splenocytes; Fig. S2a),IL-4 production (mouse splenocytes; Fig. S2b),IL-17A production (mouse splenocytes),Relative ratio IL-4/IFN-γ of cytokine production compared to α-GalCer (mouse splenocytes),Relative ratio IL-17A/IFN-γ of cytokine production compared to α-GalCer (mouse splenocytes),cytokine polarization in words (mouse splenocytes),IFN-γ production (mouse splenocytes; Fig. 4a),IL-4 production (mouse splenocytes; Fig. 4b),also measured
metabolized more rapidly,0.383,0.25,< 5,749 ± 92,metabolized more rapidly,–,CCCCCCCCCCCCCC[C@@H](O)[C@@H](O)[C@H](CO[C@H]1O[C@H](CO)[C@H](O)[C@H](O)[C@H]1O)NC(=O)CCCCCCCCCCCN(C)C(=O)CCCCCCCCCCCC [4a],–,–,–,–,–,–,–,"39,159 ± 4,960",599 ± 13,–
–,–,–,< 5,–,–,< 5,"CCCCCCCCCCCCCCCCCCCCCCCCCC(=O)N[C@@H](CO[C@H]1O[C@H](CO)[C@H](O)[C@H](O)[C@H]1O)[C@H](O)[C@H](O)CCCCCCCCCCCCCC [α-GalCer, α-galactosyl ceramide, reference compound]",–,"12,297 ± 61",247 ± 14,"2,258 ± 242",–,–,–,–,–,"IL-2 production (mCD1d-Fc fusion protein [5]): 274 ± 53; efficacy in the murine DSS model, in words (DSS-induced colitis [6]): effective in the murine DSS model"
–,–,–,–,–,–,–,CCCCCCCCCCCCCCCCCCCCCCCC(=O)N[C@@H](COC1OC(CO)C(O)C(O)C1O)[C@H](O)[C@H](O)CCCCC (some centres unmarked) [OCH],–,–,–,–,–,–,–,–,–,"efficacy in the murine DSS model, in words (DSS-induced colitis [6]): effective in the murine DSS model"
good metabolic stability,> 3.33,> 3.33,–,662 ± 46,good metabolic stability,5,CCCCCCCCCCCCCC[C@@H](O)[C@@H](O)[C@H](CO[C@H]1O[C@H](CO)[C@H](O)[C@H](O)[C@H]1O)NC(=O)CCCCCCCCCCCNC(=O)CCCCCC [1b],higher levels of cytokine production relative to that caused by α-GalCer,822 ± 11,–,976 ± 207,5.04 ± 0.90,6.43 ± 1.27,IL-4- and IL-17A-biasing properties,–,–,–
good metabolic stability,0.783,1,< 5,177 ± 27,good metabolic stability,–,CCCCCCCCCCCCCC[C@@H](O)[C@@H](O)[C@H](CO[C@H]1O[C@H](CO)[C@H](O)[C@H](O)[C@H]1O)NC(=O)CCCCCCCCCCCNC(=O)CCCCCCCCCCCC [1a],higher levels of cytokine production relative to that caused by α-GalCer,"9,152 ± 373",232 ± 41,"1,276 ± 60",1.27 ± 0.23,0.76 ± 0.06,relatively less selective cytokine responses,"16,907 ± 3,679",247 ± 19,"IL-2 production (mCD1d-Fc fusion protein [5]): 2,502 ± 114"
good metabolic stability,> 3.33,> 3.33,< 5,323 ± 41,good metabolic stability,–,CCCCCCCCCCCCCC[C@@H](O)[C@@H](O)[C@H](CO[C@H]1O[C@H](CO)[C@H](O)[C@H](O)[C@H]1O)NC(=O)CCCCCCCCCCCNCCCCCCCCCCCCC [6a],–,–,–,–,–,–,–,"8,515 ± 1,016",286 ± 12,–

Structure (SMILES),metabolic stability in words [1],half-life [1] [h],half-life [3] [h],solubility (Water solubility; [8]) [µM],IL-2 production (exact values of IL-2) (mCD1d-Fc fusion protein [5]),metabolic stability in words [3],solubility (Water solubility; detection limit 5 μM) [µM],"cytokine production / agonistic activity relative to α-GalCer, in words (mCD1d-Fc fusion protein [4])",IFN-γ production (mouse splenocytes; Fig. S2a),IL-4 production (mouse splenocytes; Fig. S2b),IL-17A production (mouse splenocytes),Relative ratio IL-4/IFN-γ of cytokine production compared to α-GalCer (mouse splenocytes),Relative ratio IL-17A/IFN-γ of cytokine production compared to α-GalCer (mouse splenocytes),cytokine polarization in words (mouse splenocytes),IFN-γ production (mouse splenocytes; Fig. 4a),IL-4 production (mouse splenocytes; Fig. 4b),also measured
CCCCCCCCCCCCCC[C@@H](O)[C@@H](O)[C@H](CO[C@H]1O[C@H](CO)[C@H](O)[C@H](O)[C@H]1O)NC(=O)CCCCCCCCCCCNC(=O)CCCCCCCNC(=O)CC [compound 2],resistant to rat microsomal metabolism,1.07,< 0.25,< 5,–,–,–,higher levels of cytokine production relative to that caused by α-GalCer,"9,467 ± 362",593 ± 65,"5,179 ± 154",3.15 ± 0.46,2.98 ± 0.03,relatively less selective cytokine responses,–,–,"mice died by day 8 (DSS-induced colitis [2]; 100 μg/kg ip on day 4, 2.0% DSS day 1-7, n = 12 per group): Two out of twelve; DAI scores (disease activity index) versus PBS control (DSS-induced colitis [2]): did not significantly alter the DAI scores; colon length (colon shortening) versus PBS control (DSS-induced colitis [2]): significantly prevented the colon shortening"
CCCCCCCCCCCCCC[C@@H](O)[C@@H](O)[C@H](CO[C@H]1O[C@H](CO)[C@H](O)[C@H](O)[C@H]1O)NC(=O)CCCCCCCCCCCNC(=O)c1ccccc1 [compound 3],resistant to rat microsomal metabolism,2.82,< 0.25,–,–,suboptimal metabolic property for human liver microsome,7.2,higher levels of cytokine production relative to that caused by α-GalCer; also recorded: higher agonistic activity than α-GalCer,514 ± 79,–,1651 ± 127,10.2 ± 1.6,18.0 ± 1.7,IL-4- and IL-17A-biasing properties,–,–,DAI scores (disease activity index) versus PBS control (DSS-induced colitis [2]): significant improvement in the DAI scores; colon length (colon shortening) versus PBS control (DSS-induced colitis [2]): significantly prevented the colon shortening; Cmax [7]: 92.8 ng/mL; Tmax [7]: 1 h; half-life [7]: 5.2 h; AUC ([7]; ip): 466 ng·h/mL
